Data from patent publication US20240246937A1 (MERCK SHARP & DOHME LLC, priority 2021, published 2024).

Target: recombinant IL4I1 (Homo sapiens (Human), UniProt Q96RQ9)
Test: IL4I1 Enzymatic Assay (Amplex Red/HRP coupled fluorescence detection of H2O2)
Format: biochemical
Settings: 240 min; recombinant IL4I1, four-hour pre-incubation with compound
How it was run: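 Ten-point, 1:3 compound titrations were fitted by four-parameter sigmoidal regression to give EC50. Resorufin fluorescence (544/590 nm) from Amplex Red/HRP-coupled H2O2 detection was read 120 min after adding 1 mM each aromatic amino acid to 1 nM IL4I1, following a 4 h compound pre-incubation in pH 7.0 Hepes buffer.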

recombinant IL4I1, sequence (Q96RQ9 22-567): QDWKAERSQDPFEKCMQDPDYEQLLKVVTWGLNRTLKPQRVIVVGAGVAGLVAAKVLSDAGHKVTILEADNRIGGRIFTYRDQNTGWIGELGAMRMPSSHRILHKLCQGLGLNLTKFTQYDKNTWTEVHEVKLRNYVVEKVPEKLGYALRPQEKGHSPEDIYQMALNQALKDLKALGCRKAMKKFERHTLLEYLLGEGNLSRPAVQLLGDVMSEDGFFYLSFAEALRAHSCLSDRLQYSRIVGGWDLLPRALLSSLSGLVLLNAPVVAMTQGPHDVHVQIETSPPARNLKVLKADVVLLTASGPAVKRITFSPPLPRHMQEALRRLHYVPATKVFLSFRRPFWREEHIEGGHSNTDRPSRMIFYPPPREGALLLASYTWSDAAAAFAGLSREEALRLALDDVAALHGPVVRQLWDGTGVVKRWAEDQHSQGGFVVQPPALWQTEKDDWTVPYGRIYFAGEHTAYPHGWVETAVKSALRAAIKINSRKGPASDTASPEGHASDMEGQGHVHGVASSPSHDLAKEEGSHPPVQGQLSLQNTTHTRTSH

EC50	Structure (SMILES)
15 nM	CC1(n2ccn(Cc3ccc(-n4ccnn4)nc3)c(=O)c2=O)CC1 [Example 414, 1-((6-(1H-1,2,3-triazol-1-yl)pyridin-3-yl)methyl)-4-(1-methylcyclopropyl)-1,4-dihydropyrazine-2,3-dione]
22 nM	O=C1C(=O)N(C2CCCC2)CCN1Cc1ccc(-c2nccs2)nn1 [Example 362, 1-cyclopentyl-4-((6-(thiazol-2-yl)pyridazin-3-yl)methyl)piperazine-2,3-dione]
240 nM	O=C1C(=O)N(C23CC(F)(C2)C3)CCN1Cc1ccc(-n2cccn2)cn1 [Example 250, 1-((5-(1H-pyrazol-1-yl)pyridin-2-yl)methyl)-4-(3-fluorobicyclo[1.1.1]pentan-1-yl)piperazine-2,3-dione]
40 nM	O=C1C(=O)N(C2CC[C@H](O)C2)CCN1Cc1nnc(-c2ccccc2)s1 (single isomer, unassigned) [Example 438, (R,S or S,R)-1-(3-hydroxycyclopentyl)-4-((5-phenyl-1,3,4-thiadiazol-2-yl)methyl)piperazine-2,3-dione]
20 nM	O=C1C(=O)N(C2CCC2)CCN1Cc1ccc(-n2nccn2)cn1 [Example 136, 1-((5-(2H-1,2,3-triazol-2-yl)pyridin-2-yl)methyl)-4-cyclobutylpiperazine-2,3-dione]
157 nM	O=C1C(=O)N(C2CCCC2)CCN1Cc1nnc(-n2nccn2)s1 [Example 323, 1-((5-(2H-1,2,3-triazol-2-yl)-1,3,4-thiadiazol-2-yl)methyl)-4-cyclopentylpiperazine-2,3-dione]
7 nM	O=C1C(=O)N(C2CCCC2)CCN1Cc1nnc(-c2ccccc2)s1 [Example 346, 1-cyclopentyl-4-((5-phenyl-1,3,4-thiadiazol-2-yl)methyl)piperazine-2,3-dione]
24 nM	O=C1C(=O)N(C2CC3CC2C3)CCN1Cc1ccc(-c2ccccc2)nn1 (stereo not drawn) [Example 183, 1-(bicyclo[2.1.1]hexan-2-yl)-4-((6-phenylpyridazin-3-yl)methyl)piperazine-2,3-dione]
78 nM	O=C1C(=O)N(C23CC(F)(C2)C3)CCN1Cc1ccc(-c2ccccn2)nn1 [Example 226]
22 nM	C[C@H](c1nnc(-c2ccccc2)s1)N1CCN(C2CCC2)C(=O)C1=O [Example 355, (R)-1-cyclobutyl-4-(1-(5-phenyl-1,3,4-thiadiazol-2-yl)ethyl)piperazine-2,3-dione]
23 nM	O=C1C(=O)N(C23CC(F)(C2)C3)CCN1Cc1ccc(-c2ccccc2F)nn1 [Example 228, 1-(3-fluorobicyclo[1.1.1]pentan-1-yl)-4-((6-(2-fluorophenyl)pyridazin-3-yl)methyl)piperazine-2,3-dione]
27 nM	CC1(N2CCN(Cc3nnc(-c4ccccc4)s3)C(=O)C2=O)CCCCC1 [Example 306, 1-(1-methylcyclohexyl)-4-((5-phenyl-1,3,4-thiadiazol-2-yl)methyl)piperazine-2,3-dione]
8 nM	O=C1C(=O)N(C2CCC2)CCN1Cc1ccc(-c2cncs2)nn1 [Example 395, 1-cyclobutyl-4-((6-(thiazol-5-yl)pyridazin-3-yl)methyl)piperazine-2,3-dione]
23 nM	O=c1c(=O)n(C23CC(C2)C3)ccn1Cc1ccc(-n2ccnn2)cn1 [Example 388, 1-((5-(1H-1,2,3-triazol-1-yl)pyridin-2-yl)methyl)-4-(bicyclo[1.1.1]pentan-1-yl)-1,4-dihydropyrazine-2,3-dione]
34 nM	CC1CN(C2CCC2)C(=O)C(=O)N1Cc1nnc(-c2ccccc2)s1 (single isomer, unassigned) [Example 437, (R or S)-1-cyclobutyl-5-methyl-4-((5-phenyl-1,3,4-thiadiazol-2-yl)methyl)piperazine-2,3-dione]
5 nM	O=c1c(=O)n(C2CCC2)ccn1Cc1cnn(-c2ccccc2)c1 [Example 160, 1-cyclobutyl-4-((1-phenyl-1H-pyrazol-4-yl)methyl)-1,4-dihydropyrazine-2,3-dione]
17 nM	O=C1C(=O)N(C2CCC2)CCN1Cc1noc(-c2ccccn2)c1Br [Example 432, 1-((4-bromo-5-(pyridin-2-yl)isoxazol-3-yl)methyl)-4-cyclobutylpiperazine-2,3-dione]
31 nM	CC1(N2CCN(CC34CC(c5ccccc5)(C3)C4(F)F)C(=O)C2=O)CCC1 [Example 190, 1-((2,2-difluoro-3-phenylbicyclo[1.1.1]pentan-1-yl)methyl)-4-(1-methylcyclobutyl)piperazine-2,3-dione]

More lines, now with the values behind:

Structure (SMILES)	EC50
O=c1c(=O)n([C@H]2C[C@H]3C[C@H]3C2)ccn1Cc1ccc(-c2ccccc2)nn1 [Example 58, 1-((cis)-bicyclo[3.1.0]hexan-3-yl)-4-((6-phenylpyridazin-3-yl)methyl)-1,4-dihydropyrazine-2,3-dione]	4 nM
CC1(n2ccn(Cc3nnc(-c4ccc(F)cc4)s3)c(=O)c2=O)CCC1 [Example 83, 1-((5-(4-fluorophenyl)-1,3,4-thiadiazol-2-yl)methyl)-4-(1-methylcyclobutyl)-1,4-dihydropyrazine-2,3-dione]	8 nM
O=C1C(=O)N(C2CCC2)CCN1Cc1ccc(-c2cn[nH]c2)nn1 [Example 25, 1-((6-(1H-pyrazol-4-yl)pyridazin-3-yl)methyl)-4-cyclobutylpiperazine-2,3-dione]	21 nM
O=C1C(=O)N(C23CC(C2)C3)CCN1Cc1cnc(-c2ccccc2)nc1 [Example 110, 1-(bicyclo[1.1.1]pentan-1-yl)-4-((2-phenylpyrimidin-5-yl)methyl)piperazine-2,3-dione]	27 nM
O=C1C(=O)N(C2CCCC2)CCN1Cc1ccc(-c2cn[nH]c2)cc1F [Example 23, 1-cyclopentyl-4-(2-fluoro-4-(1H-pyrazol-4-yl)benzyl)piperazine-2,3-dione]	21 nM
O=C1C(=O)N(C2CCCC2)CCN1Cc1ccc(-c2cnco2)nc1 [Example 18, 1-cyclopentyl-4-((6-(oxazol-5-yl)pyridin-3-yl)methyl)piperazine-2,3-dione]	41 nM
O=C1C(=O)N(C2CCC2)CCN1Cc1nnc(-c2ccccc2F)s1 [Example 33, 1-cyclobutyl-4-((5-(2-fluorophenyl)-1,3,4-thiadiazol-2-yl)methyl)piperazine-2,3-dione]	8 nM
O=C1C(=O)N(C2CCCC2)CCN1Cc1cc(-c2ccccc2F)on1 [Example 60, 1-cyclopentyl-4-((5-(2-fluorophenyl)isoxazol-3-yl)methyl)piperazine-2,3-dione]	10 nM
O=C1C(=O)N(C2CCCC2)CCN1Cc1ccc(-c2cncs2)cc1F [Example 19, 1-cyclopentyl-4-(2-fluoro-4-(thiazol-5-yl)benzyl)piperazine-2,3-dione]	7 nM
O=C1C(=O)N(C2CCC2)CCN1Cc1ncc(-c2ccccc2)s1 [Example 69, 1-cyclobutyl-4-((5-phenylthiazol-2-yl)methyl)piperazine-2,3-dione]	3 nM
O=c1c(=O)n(C2CCC2)ccn1Cc1cnc(-c2ccccc2F)cn1 [Example 74, 1-cyclobutyl-4-((5-(2-fluorophenyl)pyrazin-2-yl)methyl)-1,4-dihydropyrazine-2,3-dione]	5 nM
O=C1C(=O)N(C2CCC2)CCN1Cc1ncc(-c2ccccc2)cc1F [Example 106, 1-cyclobutyl-4-((3-fluoro-5-phenylpyridin-2-yl)methyl)piperazine-2,3-dione]	7 nM
